{"source": "the supplement of paper PMC9244889", "key": {"[1]": {"test_system": "Vero E6", "assay": "inhibition of SARS-CoV-2-induced cytopathic effect relative to cell and virus controls; higher = more antiviral protection", "conditions": "72 h, virus: SARS-CoV-2 propagated original strain, 100 TCID50, assay detail: infected", "description": "(§1)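 Vero E6 C1008 cells (2e4 cells/well) were treated with a 3-fold dilution series of each drug (monotherapy), with or without live SARS-CoV-2 (propagated original strain, 100 TCID50). After 72 h at 37 °C, viability was read with Viral ToxGlo (ATP luminescence). %Inhibition of virus-induced CPE and %Cytotoxicity (uninfected) were normalised to cell and virus controls. Triplicates. The paper excluded %Inhibition points with >25% cytotoxicity from its curve fits.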"}, "[2]": {"test_system": "Vero E6", "assay": "cytotoxicity relative to untreated cell control; higher = more toxic", "conditions": "72 h, assay detail: uninfected", "description": "as §1"}}, "note": "Where a name gives a salt, the structure may show the parent alone. ± gives the standard deviation of the averaged measurements.", "data": [{"smiles": "O=c1c2ccccc2[se]n1-c1ccccc1", "note": "[ebselen]", "values": [{"measurement": "inhibition of SARS-CoV-2-induced cytopathic effect", "setting": "[1]; 56.45 pM", "result": "0.954 ± 0.61", "unit": "%"}, {"measurement": "inhibition of SARS-CoV-2-induced cytopathic effect", "setting": "[1]; 0.000169351 µM", "result": "-0.438 ± 1.1", "unit": "%"}, {"measurement": "inhibition of SARS-CoV-2-induced cytopathic effect", "setting": "[1]; 0.000508053 µM", "result": "-0.0732 ± 1.1", "unit": "%"}, {"measurement": "inhibition of SARS-CoV-2-induced cytopathic effect", "setting": "[1]; 0.00152416 µM", "result": "-0.949 ± 0.44", "unit": "%"}, {"measurement": "inhibition of SARS-CoV-2-induced cytopathic effect", "setting": "[1]; 0.00457247 µM", "result": "-0.344 ± 1.1", "unit": "%"}, {"measurement": "inhibition of SARS-CoV-2-induced cytopathic effect", "setting": "[1]; 0.0137174 µM", "result": "-0.6 ± 1.6", "unit": "%"}, {"measurement": "inhibition of SARS-CoV-2-induced cytopathic effect", "setting": "[1]; 0.0411523 µM", "result": "-1.57 ± 0.16", "unit": "%"}, {"measurement": "inhibition of SARS-CoV-2-induced cytopathic effect", "setting": "[1]; 0.123457 µM", "result": "0.817 ± 0.74", "unit": "%"}, {"measurement": "inhibition of SARS-CoV-2-induced cytopathic effect", "setting": "[1]; 0.37037 µM", "result": "0.828 ± 2.2", "unit": "%"}, {"measurement": "inhibition of SARS-CoV-2-induced cytopathic effect", "setting": "[1]; 1.11111 µM", "result": "1.82 ± 1.7", "unit": "%"}, {"measurement": "inhibition of SARS-CoV-2-induced cytopathic effect", "setting": "[1]; 3.33333 µM", "result": "6.69 ± 0.55", "unit": "%"}, {"measurement": "inhibition of SARS-CoV-2-induced cytopathic effect", "setting": "[1]; 10 µM", "result": "71.3 ± 17", "unit": "%"}, {"measurement": "cytotoxicity", "setting": "[2]; 56.45 pM", "result": "-9.38 ± 4.1", "unit": "%"}, {"measurement": "cytotoxicity", "setting": "[2]; 0.000169351 µM", "result": "-15.3 ± 3.5", "unit": "%"}, {"measurement": "cytotoxicity", "setting": "[2]; 0.000508053 µM", "result": "-9.41 ± 1.5", "unit": "%"}, {"measurement": "cytotoxicity", "setting": "[2]; 0.00152416 µM", "result": "-4.85 ± 2.3", "unit": "%"}, {"measurement": "cytotoxicity", "setting": "[2]; 0.00457247 µM", "result": "-3.63 ± 6", "unit": "%"}, {"measurement": "cytotoxicity", "setting": "[2]; 0.0137174 µM", "result": "-5.61 ± 6.4", "unit": "%"}, {"measurement": "cytotoxicity", "setting": "[2]; 0.0411523 µM", "result": "-10.3 ± 0.24", "unit": "%"}, {"measurement": "cytotoxicity", "setting": "[2]; 0.123457 µM", "result": "-6.66 ± 3.9", "unit": "%"}, {"measurement": "cytotoxicity", "setting": "[2]; 0.37037 µM", "result": "-2.52 ± 2.6", "unit": "%"}, {"measurement": "cytotoxicity", "setting": "[2]; 1.11111 µM", "result": "-1.45 ± 4.3", "unit": "%"}, {"measurement": "cytotoxicity", "setting": "[2]; 3.33333 µM", "result": "2.92 ± 2.2", "unit": "%"}, {"measurement": "cytotoxicity", "setting": "[2]; 10 µM", "result": "17.6 ± 1.9", "unit": "%"}]}, {"smiles": "Cc1ccc(NC(=O)c2ccc(CN3CCN(C)CC3)cc2)cc1Nc1nccc(-c2cccnc2)n1", "note": "[imatinib mesylate]", "values": [{"measurement": "inhibition of SARS-CoV-2-induced cytopathic effect", "setting": "[1]; 0.000564503 µM", "result": "0.0871 ± 1.7", "unit": "%"}, {"measurement": "inhibition of SARS-CoV-2-induced cytopathic effect", "setting": "[1]; 0.00169351 µM", "result": "-0.274 ± 1", "unit": "%"}, {"measurement": "inhibition of SARS-CoV-2-induced cytopathic effect", "setting": "[1]; 0.00508053 µM", "result": "-1.02 ± 0.64", "unit": "%"}, {"measurement": "inhibition of SARS-CoV-2-induced cytopathic effect", "setting": "[1]; 0.0152416 µM", "result": "-0.646 ± 1.2", "unit": "%"}, {"measurement": "inhibition of SARS-CoV-2-induced cytopathic effect", "setting": "[1]; 0.0457247 µM", "result": "-1.84 ± 0.3", "unit": "%"}, {"measurement": "inhibition of SARS-CoV-2-induced cytopathic effect", "setting": "[1]; 0.137174 µM", "result": "-1.94 ± 1.1", "unit": "%"}, {"measurement": "inhibition of SARS-CoV-2-induced cytopathic effect", "setting": "[1]; 0.411523 µM", "result": "-2 ± 0.63", "unit": "%"}, {"measurement": "inhibition of SARS-CoV-2-induced cytopathic effect", "setting": "[1]; 1.23457 µM", "result": "1.61 ± 0.97", "unit": "%"}, {"measurement": "inhibition of SARS-CoV-2-induced cytopathic effect", "setting": "[1]; 3.7037 µM", "result": "18 ± 2.5", "unit": "%"}, {"measurement": "inhibition of SARS-CoV-2-induced cytopathic effect", "setting": "[1]; 11.1111 µM", "result": "102 ± 3", "unit": "%"}, {"measurement": "inhibition of SARS-CoV-2-induced cytopathic effect", "setting": "[1]; 33.3333 µM", "result": "48.6 ± 3.6", "unit": "%"}, {"measurement": "inhibition of SARS-CoV-2-induced cytopathic effect", "setting": "[1]; 100 µM", "result": "-17.3 ± 0.3", "unit": "%"}, {"measurement": "cytotoxicity", "setting": "[2]; 0.000564503 µM", "result": "4.59 ± 4.4", "unit": "%"}, {"measurement": "cytotoxicity", "setting": "[2]; 0.00169351 µM", "result": "-0.227 ± 6.9", "unit": "%"}, {"measurement": "cytotoxicity", "setting": "[2]; 0.00508053 µM", "result": "-4.57 ± 0.2", "unit": "%"}, {"measurement": "cytotoxicity", "setting": "[2]; 0.0152416 µM", "result": "-8.01 ± 1.7", "unit": "%"}, {"measurement": "cytotoxicity", "setting": "[2]; 0.0457247 µM", "result": "-4.41 ± 6.5", "unit": "%"}, {"measurement": "cytotoxicity", "setting": "[2]; 0.137174 µM", "result": "-4.39 ± 4.3", "unit": "%"}, {"measurement": "cytotoxicity", "setting": "[2]; 0.411523 µM", "result": "-6.59 ± 3.6", "unit": "%"}, {"measurement": "cytotoxicity", "setting": "[2]; 1.23457 µM", "result": "-4.79 ± 0.57", "unit": "%"}, {"measurement": "cytotoxicity", "setting": "[2]; 3.7037 µM", "result": "-6.93 ± 2", "unit": "%"}, {"measurement": "cytotoxicity", "setting": "[2]; 11.1111 µM", "result": "9.9 ± 1", "unit": "%"}, {"measurement": "cytotoxicity", "setting": "[2]; 33.3333 µM", "result": "61.8 ± 2.1", "unit": "%"}, {"measurement": "cytotoxicity", "setting": "[2]; 100 µM", "result": "99.785 ± 0.0083", "unit": "%"}]}, {"smiles": "Cc1cccc(C)c1OCC(=O)N[C@@H](Cc1ccccc1)[C@@H](O)C[C@H](Cc1ccccc1)NC(=O)[C@H](C(C)C)N1CCCNC1=O", "note": "[lopinavir]", "values": [{"measurement": "inhibition of SARS-CoV-2-induced cytopathic effect", "setting": "[1]; 0.00112901 µM", "result": "2.06 ± 1.6", "unit": "%"}, {"measurement": "inhibition of SARS-CoV-2-induced cytopathic effect", "setting": "[1]; 0.00338702 µM", "result": "1.04 ± 0.76", "unit": "%"}, {"measurement": "inhibition of SARS-CoV-2-induced cytopathic effect", "setting": "[1]; 0.0101611 µM", "result": "1.48 ± 0.77", "unit": "%"}, {"measurement": "inhibition of SARS-CoV-2-induced cytopathic effect", "setting": "[1]; 0.0304832 µM", "result": "0.483 ± 1.1", "unit": "%"}, {"measurement": "inhibition of SARS-CoV-2-induced cytopathic effect", "setting": "[1]; 0.0914495 µM", "result": "1.04 ± 1.5", "unit": "%"}, {"measurement": "inhibition of SARS-CoV-2-induced cytopathic effect", "setting": "[1]; 0.274348 µM", "result": "2.11 ± 1.1", "unit": "%"}, {"measurement": "inhibition of SARS-CoV-2-induced cytopathic effect", "setting": "[1]; 0.823045 µM", "result": "1.91 ± 0.61", "unit": "%"}, {"measurement": "inhibition of SARS-CoV-2-induced cytopathic effect", "setting": "[1]; 2.46914 µM", "result": "1.69 ± 1.3", "unit": "%"}, {"measurement": "inhibition of SARS-CoV-2-induced cytopathic effect", "setting": "[1]; 7.40741 µM", "result": "2.75 ± 0.88", "unit": "%"}, {"measurement": "inhibition of SARS-CoV-2-induced cytopathic effect", "setting": "[1]; 22.2222 µM", "result": "72.7 ± 2.5", "unit": "%"}, {"measurement": "inhibition of SARS-CoV-2-induced cytopathic effect", "setting": "[1]; 66.6667 µM", "result": "-14.47 ± 0.058", "unit": "%"}, {"measurement": "inhibition of SARS-CoV-2-induced cytopathic effect", "setting": "[1]; 200 µM", "result": "-14.97 ± 0.075", "unit": "%"}, {"measurement": "cytotoxicity", "setting": "[2]; 0.00112901 µM", "result": "8.74 ± 4.1", "unit": "%"}, {"measurement": "cytotoxicity", "setting": "[2]; 0.00338702 µM", "result": "6.74 ± 4.2", "unit": "%"}, {"measurement": "cytotoxicity", "setting": "[2]; 0.0101611 µM", "result": "-8.25 ± 4.7", "unit": "%"}, {"measurement": "cytotoxicity", "setting": "[2]; 0.0304832 µM", "result": "-3.94 ± 6.2", "unit": "%"}, {"measurement": "cytotoxicity", "setting": "[2]; 0.0914495 µM", "result": "-7.05 ± 1.1", "unit": "%"}, {"measurement": "cytotoxicity", "setting": "[2]; 0.274348 µM", "result": "-5.02 ± 0.94", "unit": "%"}, {"measurement": "cytotoxicity", "setting": "[2]; 0.823045 µM", "result": "-7.06 ± 1.3", "unit": "%"}, {"measurement": "cytotoxicity", "setting": "[2]; 2.46914 µM", "result": "-5.88 ± 8.8", "unit": "%"}, {"measurement": "cytotoxicity", "setting": "[2]; 7.40741 µM", "result": "-25.7 ± 5.6", "unit": "%"}, {"measurement": "cytotoxicity", "setting": "[2]; 22.2222 µM", "result": "25.9 ± 11", "unit": "%"}, {"measurement": "cytotoxicity", "setting": "[2]; 66.6667 µM", "result": "99.066 ± 0.011", "unit": "%"}, {"measurement": "cytotoxicity", "setting": "[2]; 200 µM", "result": "99.504 ± 0.095", "unit": "%"}]}]}
